Article PMC10164576, “Interaction with the carboxy-terminal tip of SSB is critical for RecG function in E. coli” (Nucleic Acids Research, 2023)
Where no end group is shown, it is not given here.

Biological target: RecG R474E (Escherichia coli, UniProt P24230, R474E)
Assay: Fluorescence anisotropy binding of 6-FAM-labelled SSB-Ct peptide to RecG R474E
Design: species or system E. coli
Details: 10 nM 6-FAM peptide, pH 7.6, 25°C, triplicate, read-out: FP K D
Source text: In vivo assembly mutagenesis ([78]) was used to introduce the R474E or R95A mutation into RecG overexpression plasmid pEAW111 to create variant overexpression plasmids pNJB3 and pEAW1324, respectively. RecG R474E or RecG R95A were expressed in STL2669/pT7pol26 and purified using the same purification scheme as wildtype RecG. The purified proteins appeared as single bands on SDS-PAGE gels and were quantified using monomer extinction coefficient ε280 nm = 5.022 × 10^4 M^−1 cm^−1. The RecG R95A preparation included a very weak nickase contaminant.
SSB peptides (sequences listed in Figure 2) were designed with an N-terminal tryptophan residue for quantification and N-terminal 6-FAM label (Genscript). […] Fluorescence polarization (FP) values were measured at 25°C using a Beacon 2000 Fluorescence Polarization System. Polarization values were normalized to the FP value measured at 0 nM RecG. […]
To more rigorously and quantitatively test the RecG HD2/SSB-Ct binding model, a RecG variant in which one of the putative SSB-binding residues is altered (RecG R474E) was purified and tested for binding to the SSB-Ct peptide and to full-length SSB in vitro. […] Binding was not detected in either titration (Figure 4C). […]

WMDFDDDIPF [SSB-Ct peptide]
Kd: > 30 µM
